Assay results taken from PubChem BioAssay AID1845211 (Molecular Pharmacology Branch, DTP, NCI, 2023).

Test system: NCI-H322M multicellular tumor spheroids, viability (% test/control)
Assay: Anticancer human tumor NCI-H322M cell line growth inhibition;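 as to viability, T/C: spheroids exposed to compound for seven days before readout; 100% = DMSO vehicle control wells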
Conditions: for IC50: curve of first compound; for viability, T/C: stronger effect = lower value
Procedure, shortened: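 Complex tumor spheroids combined malignant cells with endothelial cells and mesenchymal stem cells. DNA-damaging drugs and DNA repair inhibitors were tested alone and in combination, at half-log dilutions down from clinical Cmax (top 10 microM if Cmax unknown), 0.25% DMSO final.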

For COc1cc(C)[nH]c(=O)c1CN1CCc2c(Cl)cc(C(OC)C3COC3)c(Cl)c2C1=O (stereo not given) + CC[C@@]1(O)C(=O)OCc2c1cc1n(c2=O)Cc2cc3c(CN(C)C)c(O)ccc3nc2-1, the IC50 (second compound 0.003 µM) was greater than 10 µM, the IC50 (second compound 0.00949 µM) was greater than 10 µM and the IC50 (second compound 0.03 µM) was greater than 10 µM. It also gave an IC50 (second compound 0.0949 µM) greater than 10 µM, an IC50 (second compound 0.3 µM) of 9.8 µM and a viability, T/C (second compound 0.003 µM, first compound 0.0316 µM) of 79.2%. For the same molecule, the viability, T/C (second compound 0.003 µM, first compound 0.1 µM) was 75.4%, the viability, T/C (second compound 0.003 µM, first compound 0.316 µM) was 74.4% and the viability, T/C (second compound 0.003 µM, first compound 1 µM) was 73.1%. It also gave a viability, T/C (second compound 0.003 µM, first compound 3.16 µM) of 84.3%, a viability, T/C (second compound 0.003 µM, first compound 10 µM) of 88% and a viability, T/C (second compound 0.00949 µM, first compound 0.0316 µM) of 83.9%. It also gave a viability, T/C (second compound 0.00949 µM, first compound 0.1 µM) of 65.2%, a viability, T/C (second compound 0.00949 µM, first compound 0.316 µM) of 65.2% and a viability, T/C (second compound 0.00949 µM, first compound 1 µM) of 74%. It also gave a viability, T/C (second compound 0.00949 µM, first compound 3.16 µM) of 78.6%, a viability, T/C (second compound 0.00949 µM, first compound 10 µM) of 89.6% and a viability, T/C (second compound 0.03 µM, first compound 0.0316 µM) of 69%. For the same molecule, the viability, T/C (second compound 0.03 µM, first compound 0.1 µM) was 68.8%, the viability, T/C (second compound 0.03 µM, first compound 0.316 µM) was 72.8% and the viability, T/C (second compound 0.03 µM, first compound 1 µM) was 69.3%. For the same molecule, the viability, T/C (second compound 0.03 µM, first compound 3.16 µM) was 73.4%, the viability, T/C (second compound 0.03 µM, first compound 10 µM) was 71.7% and the viability, T/C (second compound 0.0949 µM, first compound 0.0316 µM) was 72%. The viability, T/C (second compound 0.0949 µM, first compound 0.1 µM) was 66.9%, the viability, T/C (second compound 0.0949 µM, first compound 0.316 µM) was 70.8% and the viability, T/C (second compound 0.0949 µM, first compound 1 µM) was 58.1%. The viability, T/C (second compound 0.0949 µM, first compound 3.16 µM) was 65.4%, the viability, T/C (second compound 0.0949 µM, first compound 10 µM) was 71.2% and the viability, T/C (second compound 0.3 µM, first compound 0.0316 µM) was 60.5%. The viability, T/C (second compound 0.3 µM, first compound 0.1 µM) was 49.9%, the viability, T/C (second compound 0.3 µM, first compound 0.316 µM) was 48.5% and the viability, T/C (second compound 0.3 µM, first compound 1 µM) was 48.5%. It also gave a viability, T/C (second compound 0.3 µM, first compound 3.16 µM) of 54.9% and a viability, T/C (second compound 0.3 µM, first compound 10 µM) of 50.3%.

Cc1sc2c(c1C)C(c1ccc(Cl)cc1)=NC(CC(=O)Nc1ccc(O)cc1)c1nnc(C)n1-2 (stereo not given) + Cn1nnc2c(C(N)=O)ncn2c1=O was tested, and the IC50 (second compound 1 µM) was greater than 3 µM, the IC50 (second compound 3.16 µM) was greater than 3 µM and the IC50 (second compound 10 µM) was greater than 3 µM. The IC50 (second compound 31.6 µM) was greater than 3 µM, the IC50 (second compound 100 µM) was greater than 3 µM and the viability, T/C (second compound 1 µM, first compound 0.00949 µM) was 109%. It also gave a viability, T/C (second compound 1 µM, first compound 0.03 µM) of 105%, a viability, T/C (second compound 1 µM, first compound 0.0949 µM) of 134% and a viability, T/C (second compound 1 µM, first compound 0.3 µM) of 114%. It also gave a viability, T/C (second compound 1 µM, first compound 0.949 µM) of 81.2%, a viability, T/C (second compound 1 µM, first compound 3 µM) of 80.3% and a viability, T/C (second compound 3.16 µM, first compound 0.00949 µM) of 104%. For the same molecule, the viability, T/C (second compound 3.16 µM, first compound 0.03 µM) was 113%, the viability, T/C (second compound 3.16 µM, first compound 0.0949 µM) was 120% and the viability, T/C (second compound 3.16 µM, first compound 0.3 µM) was 103%. The viability, T/C (second compound 3.16 µM, first compound 0.949 µM) was 87.6%, the viability, T/C (second compound 3.16 µM, first compound 3 µM) was 73.5% and the viability, T/C (second compound 10 µM, first compound 0.00949 µM) was 107%. The viability, T/C (second compound 10 µM, first compound 0.03 µM) was 124%, the viability, T/C (second compound 10 µM, first compound 0.0949 µM) was 129% and the viability, T/C (second compound 10 µM, first compound 0.3 µM) was 113%. It also gave a viability, T/C (second compound 10 µM, first compound 0.949 µM) of 90.2%, a viability, T/C (second compound 10 µM, first compound 3 µM) of 74.5% and a viability, T/C (second compound 31.6 µM, first compound 0.00949 µM) of 111%. It also gave a viability, T/C (second compound 31.6 µM, first compound 0.03 µM) of 130%, a viability, T/C (second compound 31.6 µM, first compound 0.0949 µM) of 120% and a viability, T/C (second compound 31.6 µM, first compound 0.3 µM) of 115%. It also gave a viability, T/C (second compound 31.6 µM, first compound 0.949 µM) of 91.2%, a viability, T/C (second compound 31.6 µM, first compound 3 µM) of 71.9% and a viability, T/C (second compound 100 µM, first compound 0.00949 µM) of 116%. It also gave a viability, T/C (second compound 100 µM, first compound 0.03 µM) of 124%, a viability, T/C (second compound 100 µM, first compound 0.0949 µM) of 116% and a viability, T/C (second compound 100 µM, first compound 0.3 µM) of 111%. For the same molecule, the viability, T/C (second compound 100 µM, first compound 0.949 µM) was 92.7% and the viability, T/C (second compound 100 µM, first compound 3 µM) was 82%.
